Laboratory results reported in patent publication US20070276034A1, “Compounds, compositions and methods for the treatment of synucleinopathies” (priority 2002, published 2007).
Read-outs that look alike come from different tables or passages of the source. Each block holds one compound with its values, some of them ahead of it.

Tests used:
Assay type in all cases: biochemical
NAC fibrils = biological target: T1, NAC fibrils (Homo sapiens, UniProt P37840); test: Thioflavin T fluorometry - disruption of Parkinson's disease NAC fibrils; settings: 3 days; for % Inhibition NAC (result ± S.D.) / inhibition: 25 μM pre-fibrillized NAC, 37° C.; for disruption/disassembly of pre-formed NAC fibrils (in words): all concentrations tested (ratios 1:1 to 1:0.001); for inhibition: read-out: % Inhibition NAC (result ± S.D.)
T1 construct: NAC is a 35-amino acid fragment of α-synuclein; purchased Bachem Inc
Procedure: In this assay, Thioflavin T binds specifically to NAC fibrils, and this binding produces a fluorescence enhancement at 485 nm that is directly proportional to the amount of NAC fibrils present. The higher the fluorescence, the greater the amount of NAC fibrils present (Naki et al, Lab. Invest. 65:104-110, 1991; Levine III, Protein Sci. 2:404-410, 1993; Amyloid: Int. J. Exp. Clin. Invest. 2:1-6, 1995).
In this study, 25 μM of pre-fibrillized NAC (Bachem Inc) was incubated at 37° C. for 3 days either alone or in the presence of dihydroxy synthetic analog compounds #1, 3, 23, 26, 52, 63, 66, 67, or EDTA (at NAC:test compound weight ratios of 1:1, 1:0.1, 1:0.01 or 1:0.001). Following 3-days of co-incubation, 50 βl of each incubation mixture was transferred into a 96-well microtiter plate containing 150 μl of distilled water and 50 μl of a Thioflavin T solution (i.e. 500 mM Thioflavin T in 250 mM phosphate buffer, pH 6.8). The fluorescence was read at 485 nm (444 nm excitation wavelength) using an ELISA plate fluorometer after subtraction with buffer alone or compound alone, as blank.

IAPP fibrils [1] = biological target: T2, IAPP fibrils (Homo sapiens, UniProt P10997); test: Thioflavin T fluorometry - disruption of type 2 diabetes IAPP fibrils; settings: 3 days; for % Inhibition IAPP (result ± S.D.) / inhibition: 25 μM pre-fibrillized IAPP, 37° C.; for inhibition: read-out: % Inhibition IAPP (result ± S.D.)
T2 construct: purchased Bachem Inc
T2 sequence (P10997 34-70 limits assumed): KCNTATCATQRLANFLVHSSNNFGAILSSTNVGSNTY
Method in brief: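 Pre-fibrillized human IAPP (25 μM) incubated 3 days at 37 °C alone or with compound at IAPP:compound weight ratios of 1:1 to 1:0.001. Mixtures then mixed with Thioflavin T in phosphate buffer pH 6.8; fluorescence read at 485 nm (ex 444 nm) after blank subtraction.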

IAPP fibrils [2] = biological target: T2, IAPP fibrils; test: Congo red binding assay with IAPP fibrils; settings: for % Inhibition IAPP (result ± S.D.), Congo red binding: 3-day incubation
Method in brief: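 Congo red staining of washed 0.2 μm filters measured the aggregated IAPP retained after a 3-day co-incubation with compound or EDTA. Weight ratios IAPP:compound were 1:1, 1:0.1, 1:0.01 or 1:0.001; loss of color relative to compound-free IAPP was scored.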

Aβ 1-42 fibrils = biological target: T3, Aβ 1-42 fibrils (Homo sapiens, UniProt P05067); test: Thioflavin T fluorometry - disruption of pre-formed Aβ 1-42 Alzheimer's fibrils; settings: 3 days; for % Inhibition Aβ (result ± S.D.) / inhibition: 25 μM pre-fibrillized Aβ 1-42, 37° C.; for inhibition: read-out: % Inhibition Aβ (result ± S.D.)
T3 construct: purchased Bachem Inc
T3 sequence (P05067 672-713): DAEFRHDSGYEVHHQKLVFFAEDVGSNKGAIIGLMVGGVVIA
Method in brief: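 Pre-fibrillized Aβ1-42 (25 µM) incubated 3 days at 37 °C alone or with compound at Aβ:compound weight ratios 1:1 to 1:0.001. Remaining fibrils quantified by Thioflavin T fluorescence (ex 444/em 485 nm) in phosphate buffer pH 6.8, blank-subtracted for buffer or compound alone.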

[3] = NAC:test compound wt/wt ratio 1:0.001
[4] = NAC:test compound wt/wt ratio 1:0.01
[5] = NAC:test compound wt/wt ratio 1:0.1
[6] = NAC:test compound wt/wt ratio 1:1
[7] = IAPP:test compound wt/wt ratio 1:0.001
[8] = IAPP:test compound wt/wt ratio 1:0.01
[9] = IAPP:test compound wt/wt ratio 1:0.1
[10] = IAPP:test compound wt/wt ratio 1:1
[11] = all concentrations tested (ratios 1:1 to 1:0.001)
[12] = Aβ:test compound wt/wt ratio 1:0.001
[13] = Aβ:test compound wt/wt ratio 1:0.01
[14] = Aβ:test compound wt/wt ratio 1:0.1
[15] = Aβ:test compound wt/wt ratio 1:1

SMILES: O=C(O)CN(CCN(CC(=O)O)CC(=O)O)CC(=O)O [EDTA, reference compound]
% Inhibition NAC (result ± S.D.) (NAC fibrils; [3]): 0.0 ± 11.6% | % Inhibition NAC (result ± S.D.) (NAC fibrils; [4]): 0.0 ± 10.87% | % Inhibition NAC (result ± S.D.) (NAC fibrils; [5]): 0.0 ± 5.87% | % Inhibition NAC (result ± S.D.) (NAC fibrils; [6]): 20.0 ± 11.8% | disruption/disassembly of pre-formed NAC fibrils (in words) (NAC fibrils): no significant inhibition | % Inhibition IAPP (result ± S.D.) (IAPP fibrils [1]; [7]): 4.2 ± 1.05% | % Inhibition IAPP (result ± S.D.) (IAPP fibrils [1]; [8]): 0.0 ± 5.23% | % Inhibition IAPP (result ± S.D.) (IAPP fibrils [1]; [9]): 0.1 ± 2.59% | % Inhibition IAPP (result ± S.D.) (IAPP fibrils [1]; [10]): 4.4 ± 9.23% | disruption/disassembly of pre-formed IAPP fibrils (in words) (IAPP fibrils [1]; [11]): no significant inhibition | % Inhibition IAPP (result ± S.D.), Congo red binding (IAPP fibrils [2]; [7]): 6.6 ± 2.27% | % Inhibition IAPP (result ± S.D.), Congo red binding (IAPP fibrils [2]; [8]): 3.6 ± 2.83% | % Inhibition IAPP (result ± S.D.), Congo red binding (IAPP fibrils [2]; [9]): 0.0 ± 1.91% | % Inhibition IAPP (result ± S.D.), Congo red binding (IAPP fibrils [2]; [10]): 0.0 ± 3.69% | inhibition of IAPP fibril binding to Congo red (in words) (IAPP fibrils [2]; all concentrations tested (ratios 1:1 to 1:0.001), 3 days): no significant inhibition | % Inhibition Aβ (result ± S.D.) (Aβ 1-42 fibrils; [12]): 0.0 ± 3.01% | % Inhibition Aβ (result ± S.D.) (Aβ 1-42 fibrils; [13]): 0.0 ± 4.88% | % Inhibition Aβ (result ± S.D.) (Aβ 1-42 fibrils; [14]): 0.0 ± 7.12% | % Inhibition Aβ (result ± S.D.) (Aβ 1-42 fibrils; [15]): 11.3 ± 9.67% | disruption/disassembly of preformed Aβ 1-42 fibrils (in words) (Aβ 1-42 fibrils; [11]): no significant inhibition

inhibition (NAC fibrils; [3]): 11.9 ± 16% | inhibition (NAC fibrils; [4]): 30.6 ± 5.75% | inhibition (NAC fibrils; [5]): 50 ± 7.03% | inhibition (NAC fibrils; [6]): 97.4 ± 1.19% | disruption/disassembly of pre-formed NAC fibrils (in words) (NAC fibrils): dose-dependent disruption/disassembly | inhibition (IAPP fibrils [1]; [7]): 16.1 ± 12.4% | inhibition (IAPP fibrils [1]; [8]): 34.8 ± 1.87% | inhibition (IAPP fibrils [1]; [9]): 81.4 ± 6.96% | inhibition (IAPP fibrils [1]; [10]): 98.6 ± 0.22% | % Inhibition IAPP (result ± S.D.), Congo red binding (IAPP fibrils [2]; [7]): 0.0 ± 3.45% | % Inhibition IAPP (result ± S.D.), Congo red binding (IAPP fibrils [2]; [8]): 10.6 ± 1.29% | % Inhibition IAPP (result ± S.D.), Congo red binding (IAPP fibrils [2]; [9]): 5.5 ± 2.52% | % Inhibition IAPP (result ± S.D.), Congo red binding (IAPP fibrils [2]; [10]): 26.3 ± 2.76% | inhibition (Aβ 1-42 fibrils; [12]): 13.7 ± 6.05% | inhibition (Aβ 1-42 fibrils; [13]): 34 ± 14.1% | inhibition (Aβ 1-42 fibrils; [14]): 50.9 ± 8.32% | inhibition (Aβ 1-42 fibrils; [15]): 98.3 ± 2.19%
SMILES: O=C(CCC(=O)NCc1ccc(O)c(O)c1)NCc1ccc(O)c(O)c1 [Compound 67, succinic acid bis(3,4-dihydroxybenzylamide)]
